Values quoted from earlier work in patent US7709469B2, “P2X7 receptor antagonists and methods of use” (Abbott Laboratories, priority 2005, dated 2010).

Legend:
P2X7 [1] = molecular target: T1, P2X7 (Rattus norvegicus, UniProt Q64663); parameters: Rats with SCI were administered P2X7 receptor irreversible antagonists oATP and PPADS; host or cells: living rats (endogenous receptor); settings: rats with SCI
T1 sequence (Q64663 1-595): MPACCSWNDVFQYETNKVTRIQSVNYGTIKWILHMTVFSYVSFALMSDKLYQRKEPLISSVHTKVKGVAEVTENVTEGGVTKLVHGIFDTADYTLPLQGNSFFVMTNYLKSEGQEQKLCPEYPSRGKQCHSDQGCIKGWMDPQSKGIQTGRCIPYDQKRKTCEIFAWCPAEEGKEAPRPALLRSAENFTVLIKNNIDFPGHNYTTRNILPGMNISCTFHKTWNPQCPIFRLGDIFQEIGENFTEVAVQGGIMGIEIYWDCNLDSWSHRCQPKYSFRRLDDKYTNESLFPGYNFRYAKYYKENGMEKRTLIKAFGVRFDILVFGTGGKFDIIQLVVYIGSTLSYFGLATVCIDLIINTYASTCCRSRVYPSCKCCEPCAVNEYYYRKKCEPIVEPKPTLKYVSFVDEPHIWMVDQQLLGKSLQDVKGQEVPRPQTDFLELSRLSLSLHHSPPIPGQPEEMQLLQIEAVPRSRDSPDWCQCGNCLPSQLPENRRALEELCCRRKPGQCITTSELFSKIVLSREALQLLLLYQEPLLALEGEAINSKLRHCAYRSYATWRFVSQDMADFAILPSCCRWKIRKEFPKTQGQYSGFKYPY

P2X7 [2] = molecular target: T1, P2X7; parameters: host or cells: living rats (endogenous receptor); settings: inflamed rats

| SMILES | histological injury and recovery of motor function after SCI (P2X7 [1]) | antinociceptive properties (P2X7 [2]) |
| --- | --- | --- |
| Cc1nc(N=Nc2ccc(S(=O)(=O)O)cc2S(=O)(=O)O)c(COP(=O)(O)O)c(C=O)c1O [PPADS] | decrease of histological injury and improved recovery of motor function | – |
| Nc1ncnc2c1ncn2[C@@H](C=O)O[C@@H](C=O)COP(=O)(O)OP(=O)(O)OP(=O)(O)O [oATP, Oxidized ATP] | decrease of histological injury and improved recovery of motor function | possess peripherally mediated antinociceptive properties |
